According to EPA's ToxValDB 9.5 (doi:10.2903/j.efsa.2013.3469):
Values after ≈ are worked out from the molar mass of the structure shown.

Key:
Typhlodromus pyri [1] = assay: LR50; higher = less toxic; details: not reported; mortality
Typhlodromus pyri [2] = details: not reported; mortality
Tagia sp. = details: acute, duration: 14 days
Daphnia magna = details: chronic/long-term; duration: 21 days; reproduction
Apis mellifera = details: acute; oral; unspecified; mortality
Folsomia candida = details: chronic/long-term; mortality
Anas platyrhynchos = details: oral, mortality
Bibionidae = details: chronic/long-term; duration: 28 days; development

Compound `CC1(C)[C@H](C(=O)O[C@H](C#N)c2cccc(Oc3ccccc3)c2)[C@@H]1/C=C\C(=O)OC(C(F)(F)F)C(F)(F)F` [Acrinathrin] has an LR50 (Typhlodromus pyri [1]) of 0.006 g/ha, an LD50 (Colinus virginianus; acute, oral, mortality) of over 2250 mg/kg-day and an NOEC (Colinus virginianus; reproduction developmental, reproduction) of 19.9 mg/kg-day. It also gave an NOEC (Colinus virginianus; short-term, oral, diet, mortality) of 325 mg/kg-day, an NOEC (Typhlodromus pyri [2]) of 0.00068 g/ha and an NOEC (Tagia sp.; biomass) of 1.6 mg/kg. It also gave an LC50 (Tagia sp.; mortality) of over 1000 mg/kg, an LD50 (Rattus norvegicus; acute, oral, mortality) of over 5000 mg/kg-day and an NOAEL (Rattus norvegicus; acute, oral, neurology) of 1 mg/kg-day. It also gave an NOAEL (Rattus norvegicus; reproduction developmental, no effects) of 9.4 mg/kg-day, an NOEC (Daphnia magna) of 3.2e-06 mg/L and an LD50 (Apis mellifera) of 0.077 µg/piece. The LC50 (Pimephales promelas; acute, duration: 96 hours, mortality) was 1.7 ng/mL (≈ 3.14 nM), the NOEC (Pimephales promelas; chronic/long-term, duration: 28 days) was 1.1e-05 mg/L and the NOEC (Folsomia candida) was under 1 mg/kg. It also gave an LD50 (Anas platyrhynchos; acute, unspecified) of over 2000 mg/kg-day, an NOEC (Anas platyrhynchos; short-term, feed) of 173 mg/kg-day and an NOEC (Bibionidae) of 3.1e-05 mg/L.
